According to ChEMBL document CHEMBL4049437, “Benzoisoquinolinediones as Potent and Selective Inhibitors of BRPF2 and TAF1/TAF1L Bromodomains” (J Med Chem, 2017):
Converted amounts (≈) assume the structure as drawn. Values belong to the molecule of their own block, whether it stands above or below them. The source made the active and inactive calls. The rule behind the calls is not given here.

Key:
[1] = molecular target: T1, Bromodomain-containing protein 1 (Homo sapiens, UniProt O95696)
T1 sequence (O95696 whole entry): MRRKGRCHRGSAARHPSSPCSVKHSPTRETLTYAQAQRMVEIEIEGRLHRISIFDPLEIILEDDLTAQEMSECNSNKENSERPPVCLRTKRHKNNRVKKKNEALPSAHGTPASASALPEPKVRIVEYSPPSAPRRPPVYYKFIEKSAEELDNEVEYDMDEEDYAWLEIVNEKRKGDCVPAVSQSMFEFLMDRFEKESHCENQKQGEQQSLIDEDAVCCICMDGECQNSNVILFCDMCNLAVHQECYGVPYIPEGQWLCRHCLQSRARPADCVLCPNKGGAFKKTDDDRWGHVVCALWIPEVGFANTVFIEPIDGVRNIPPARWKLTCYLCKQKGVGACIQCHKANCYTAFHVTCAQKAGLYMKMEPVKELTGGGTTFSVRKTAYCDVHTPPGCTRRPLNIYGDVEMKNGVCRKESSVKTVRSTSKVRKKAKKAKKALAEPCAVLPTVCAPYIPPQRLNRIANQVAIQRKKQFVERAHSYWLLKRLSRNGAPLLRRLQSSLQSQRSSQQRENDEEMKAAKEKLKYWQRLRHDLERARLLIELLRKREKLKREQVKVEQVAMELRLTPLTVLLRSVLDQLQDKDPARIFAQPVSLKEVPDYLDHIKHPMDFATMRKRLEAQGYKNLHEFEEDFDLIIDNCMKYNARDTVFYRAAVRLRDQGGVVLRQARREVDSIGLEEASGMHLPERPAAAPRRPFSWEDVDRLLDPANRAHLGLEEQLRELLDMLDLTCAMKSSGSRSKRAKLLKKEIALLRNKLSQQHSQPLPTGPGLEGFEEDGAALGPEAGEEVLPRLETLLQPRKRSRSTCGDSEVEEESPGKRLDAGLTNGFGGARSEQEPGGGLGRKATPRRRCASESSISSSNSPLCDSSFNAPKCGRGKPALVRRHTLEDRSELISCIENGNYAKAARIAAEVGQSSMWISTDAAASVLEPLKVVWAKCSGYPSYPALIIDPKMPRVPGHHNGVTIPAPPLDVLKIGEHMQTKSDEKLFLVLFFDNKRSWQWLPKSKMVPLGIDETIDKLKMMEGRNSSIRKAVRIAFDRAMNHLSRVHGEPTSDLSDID

[2] = molecular target: T1, Bromodomain-containing protein 1; experiment: (§1) Inhibition of human BRPF2 (563 to 688 residues) expressed in Escherichia coli BL21 (DE3)-R3-pRARE2 preincubated for 15 mins followed by addition of C-terminal biotinylated synthetic K5,12 diacetylated histone H4 (1 to 20 residues) peptide as substrate measured after 1 hr by TR-FRET assay
Peregrin = molecular target: T2, Peregrin (Homo sapiens, UniProt P55201); experiment: Inhibition of His-tagged BRPF1 (626 to 740 residues) (unknown origin) preincubated for 15 mins followed by addition of C-terminal biotinylated synthetic K5,12 diacetylated histone H4 (1 to 20 residues) peptide as substrate measured after 1 hr by TR-FRET assay
T2 sequence (P55201 whole entry): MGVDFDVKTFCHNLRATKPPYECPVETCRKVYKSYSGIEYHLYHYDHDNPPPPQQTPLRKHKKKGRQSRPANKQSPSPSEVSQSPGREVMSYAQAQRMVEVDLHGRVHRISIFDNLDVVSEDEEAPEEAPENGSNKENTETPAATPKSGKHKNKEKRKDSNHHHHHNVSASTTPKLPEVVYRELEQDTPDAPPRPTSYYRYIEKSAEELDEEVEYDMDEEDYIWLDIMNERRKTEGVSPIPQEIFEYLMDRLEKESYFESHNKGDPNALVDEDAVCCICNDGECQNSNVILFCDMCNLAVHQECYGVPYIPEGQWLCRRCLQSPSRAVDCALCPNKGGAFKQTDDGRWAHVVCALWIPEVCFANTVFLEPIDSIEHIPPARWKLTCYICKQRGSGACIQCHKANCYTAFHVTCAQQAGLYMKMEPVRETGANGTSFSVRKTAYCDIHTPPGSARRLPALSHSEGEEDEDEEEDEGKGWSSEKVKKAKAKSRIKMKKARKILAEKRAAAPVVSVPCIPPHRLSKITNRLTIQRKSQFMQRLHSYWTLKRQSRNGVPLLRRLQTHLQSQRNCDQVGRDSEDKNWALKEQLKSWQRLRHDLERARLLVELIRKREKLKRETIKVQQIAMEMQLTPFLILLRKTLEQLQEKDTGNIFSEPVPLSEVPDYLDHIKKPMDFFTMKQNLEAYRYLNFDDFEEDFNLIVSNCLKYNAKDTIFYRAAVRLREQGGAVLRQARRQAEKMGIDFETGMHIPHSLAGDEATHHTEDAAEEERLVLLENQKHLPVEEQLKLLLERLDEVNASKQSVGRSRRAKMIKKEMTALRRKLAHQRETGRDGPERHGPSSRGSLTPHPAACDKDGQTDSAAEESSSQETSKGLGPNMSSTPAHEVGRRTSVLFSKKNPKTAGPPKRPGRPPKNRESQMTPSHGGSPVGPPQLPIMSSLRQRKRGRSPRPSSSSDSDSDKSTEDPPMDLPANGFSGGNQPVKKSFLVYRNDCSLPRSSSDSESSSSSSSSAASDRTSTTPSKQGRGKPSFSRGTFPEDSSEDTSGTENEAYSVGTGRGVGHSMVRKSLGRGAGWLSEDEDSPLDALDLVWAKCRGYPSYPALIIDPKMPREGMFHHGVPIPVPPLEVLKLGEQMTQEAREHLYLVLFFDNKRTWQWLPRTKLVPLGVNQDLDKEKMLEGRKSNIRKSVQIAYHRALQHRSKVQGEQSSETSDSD

[3] = molecular target: Bromodomain-containing protein 1 (Homo sapiens) (UniProt O95696); experiment: Binding affinity to human BRPF2 (563 to 688 residues) expressed in Escherichia coli BL21 (DE3) assessed as thermal stability by measuring change in melting temperature at 10 uM by SYPRO Orange-dye based fluorescence assay
[4] = Aqueous solubility of the compound in DMSO at pH 6.5 after 24 hrs by HPLC-MS/MS analysis; format: physicochemical; conditions: pH 6.5, 24 h
[5] = molecular target: T3, Transcription initiation factor TFIID subunit 1 (Homo sapiens, UniProt P21675); experiment: Stabilization of human GST-tagged TAF1 BD2 (1519 to 1651 residues) expressed in Escherichia coli BL21 (DE3) assessed as increase in melting temperature at 10 uM by SYPRO Orange-dye based fluorescence thermal shift assay
T3 sequence (P21675 whole entry, the tested form may be a part): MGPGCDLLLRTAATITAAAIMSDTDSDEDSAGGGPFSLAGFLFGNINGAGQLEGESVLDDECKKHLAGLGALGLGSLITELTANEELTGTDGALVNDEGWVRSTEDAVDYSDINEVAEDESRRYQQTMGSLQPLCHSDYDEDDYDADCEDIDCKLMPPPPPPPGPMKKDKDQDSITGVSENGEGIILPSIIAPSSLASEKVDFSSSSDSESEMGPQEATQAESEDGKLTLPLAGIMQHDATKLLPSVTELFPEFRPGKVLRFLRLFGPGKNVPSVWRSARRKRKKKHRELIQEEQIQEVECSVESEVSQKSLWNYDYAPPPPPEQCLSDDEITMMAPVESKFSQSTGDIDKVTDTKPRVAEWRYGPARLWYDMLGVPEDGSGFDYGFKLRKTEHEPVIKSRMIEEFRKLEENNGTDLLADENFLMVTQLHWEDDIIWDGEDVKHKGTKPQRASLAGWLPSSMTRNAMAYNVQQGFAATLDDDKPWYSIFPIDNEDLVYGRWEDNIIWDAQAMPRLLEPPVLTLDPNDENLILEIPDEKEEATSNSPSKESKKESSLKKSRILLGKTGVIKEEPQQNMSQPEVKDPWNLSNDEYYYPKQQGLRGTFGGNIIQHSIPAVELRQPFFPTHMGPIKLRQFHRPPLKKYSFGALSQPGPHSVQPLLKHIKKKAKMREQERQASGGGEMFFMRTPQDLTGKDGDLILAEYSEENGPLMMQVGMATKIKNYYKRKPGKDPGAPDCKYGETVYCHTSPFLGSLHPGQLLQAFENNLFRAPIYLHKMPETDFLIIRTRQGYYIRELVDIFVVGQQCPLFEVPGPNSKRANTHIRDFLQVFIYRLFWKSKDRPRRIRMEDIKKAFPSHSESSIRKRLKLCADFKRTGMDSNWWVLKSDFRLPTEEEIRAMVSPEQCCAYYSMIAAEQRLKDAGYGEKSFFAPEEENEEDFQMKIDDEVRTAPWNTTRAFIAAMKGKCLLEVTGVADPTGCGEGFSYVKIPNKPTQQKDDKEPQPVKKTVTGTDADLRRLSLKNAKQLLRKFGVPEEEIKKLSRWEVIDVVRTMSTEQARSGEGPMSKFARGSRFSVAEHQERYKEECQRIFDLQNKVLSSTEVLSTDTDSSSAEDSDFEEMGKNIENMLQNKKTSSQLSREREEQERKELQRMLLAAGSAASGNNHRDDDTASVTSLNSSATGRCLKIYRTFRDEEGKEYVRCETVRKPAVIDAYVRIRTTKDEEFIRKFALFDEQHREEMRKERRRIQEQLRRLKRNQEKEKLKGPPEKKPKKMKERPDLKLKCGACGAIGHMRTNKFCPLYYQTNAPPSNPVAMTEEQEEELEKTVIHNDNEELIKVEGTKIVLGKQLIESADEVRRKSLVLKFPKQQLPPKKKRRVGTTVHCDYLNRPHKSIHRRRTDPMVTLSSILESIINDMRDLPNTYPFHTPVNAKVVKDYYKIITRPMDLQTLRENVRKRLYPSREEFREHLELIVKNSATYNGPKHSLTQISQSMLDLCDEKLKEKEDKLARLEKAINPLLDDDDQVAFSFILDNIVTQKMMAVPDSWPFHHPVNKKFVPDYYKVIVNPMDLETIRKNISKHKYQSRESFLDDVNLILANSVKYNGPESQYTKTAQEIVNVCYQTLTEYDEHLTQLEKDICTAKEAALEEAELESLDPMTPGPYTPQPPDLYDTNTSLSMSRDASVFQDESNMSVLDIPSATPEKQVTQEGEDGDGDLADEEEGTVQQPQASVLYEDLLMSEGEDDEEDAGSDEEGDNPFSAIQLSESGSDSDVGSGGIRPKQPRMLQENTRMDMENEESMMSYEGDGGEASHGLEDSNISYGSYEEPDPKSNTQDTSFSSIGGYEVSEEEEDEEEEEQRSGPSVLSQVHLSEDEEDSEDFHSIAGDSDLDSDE

[6] = molecular target: T4, Bromodomain-containing protein 4 (Homo sapiens, UniProt O60885)
[7] = molecular target: Chromatin remodeling regulator CECR2 (Homo sapiens) (UniProt Q9BXF3); experiment: Inhibition of CECR2 (unknown origin) assessed as change in melting temperature at 10 uM by SYPRO Orange-dye based fluorescence thermal shift assay
[8] = molecular target: Histone acetyltransferase p300 (Homo sapiens) (UniProt Q09472); experiment: Inhibition of EP300 (unknown origin) assessed as change in melting temperature at 10 uM by SYPRO Orange-dye based fluorescence thermal shift assay
[9] = molecular target: T4, Bromodomain-containing protein 4; experiment: Inhibition of BRD4 BD2 (unknown origin) preincubated for 15 mins followed by addition of C-terminal biotinylated synthetic K5,8,12,16 tetra-acetylated histone H4 (1 to 20 residues) peptide as substrate measured after 1 hr by TR-FRET assay
Peregrin (Homo sapiens) [10] = molecular target: T5, Peregrin (Homo sapiens) (UniProt P55201); experiment: Inhibition of Halo-tagged histone H4 binding to C-terminally NanoLuc luciferase conjugated BRPF1 BD (626 to 732 residues) (unknown origin) expressed in human HCT116 cells after 4 to 24 hrs by BRET assay; format: cell-based
T5 sequence (whole entry): T2 sequence (P55201 whole entry)

[11] = molecular target: T3, Transcription initiation factor TFIID subunit 1; experiment: as §1, with “GST-tagged TAF1 BD2 (1519” for “BRPF2 (563”, “1651” for “688”, “K5,8,12,16 tetra-acetylated” for “K5,12 diacetylated”
[12] = molecular target: T6, Transcription initiation factor TFIID subunit 1-like (Homo sapiens, UniProt Q8IZX4); experiment: Stabilization of human GST-tagged TAF1L BD2 (1517 to 1649 residues) expressed in Escherichia coli BL21 (DE3) at 10 uM by SYPRO Orange-dye based fluorescence thermal shift assay
T6 sequence (Q8IZX4 whole entry, the tested form may be a part): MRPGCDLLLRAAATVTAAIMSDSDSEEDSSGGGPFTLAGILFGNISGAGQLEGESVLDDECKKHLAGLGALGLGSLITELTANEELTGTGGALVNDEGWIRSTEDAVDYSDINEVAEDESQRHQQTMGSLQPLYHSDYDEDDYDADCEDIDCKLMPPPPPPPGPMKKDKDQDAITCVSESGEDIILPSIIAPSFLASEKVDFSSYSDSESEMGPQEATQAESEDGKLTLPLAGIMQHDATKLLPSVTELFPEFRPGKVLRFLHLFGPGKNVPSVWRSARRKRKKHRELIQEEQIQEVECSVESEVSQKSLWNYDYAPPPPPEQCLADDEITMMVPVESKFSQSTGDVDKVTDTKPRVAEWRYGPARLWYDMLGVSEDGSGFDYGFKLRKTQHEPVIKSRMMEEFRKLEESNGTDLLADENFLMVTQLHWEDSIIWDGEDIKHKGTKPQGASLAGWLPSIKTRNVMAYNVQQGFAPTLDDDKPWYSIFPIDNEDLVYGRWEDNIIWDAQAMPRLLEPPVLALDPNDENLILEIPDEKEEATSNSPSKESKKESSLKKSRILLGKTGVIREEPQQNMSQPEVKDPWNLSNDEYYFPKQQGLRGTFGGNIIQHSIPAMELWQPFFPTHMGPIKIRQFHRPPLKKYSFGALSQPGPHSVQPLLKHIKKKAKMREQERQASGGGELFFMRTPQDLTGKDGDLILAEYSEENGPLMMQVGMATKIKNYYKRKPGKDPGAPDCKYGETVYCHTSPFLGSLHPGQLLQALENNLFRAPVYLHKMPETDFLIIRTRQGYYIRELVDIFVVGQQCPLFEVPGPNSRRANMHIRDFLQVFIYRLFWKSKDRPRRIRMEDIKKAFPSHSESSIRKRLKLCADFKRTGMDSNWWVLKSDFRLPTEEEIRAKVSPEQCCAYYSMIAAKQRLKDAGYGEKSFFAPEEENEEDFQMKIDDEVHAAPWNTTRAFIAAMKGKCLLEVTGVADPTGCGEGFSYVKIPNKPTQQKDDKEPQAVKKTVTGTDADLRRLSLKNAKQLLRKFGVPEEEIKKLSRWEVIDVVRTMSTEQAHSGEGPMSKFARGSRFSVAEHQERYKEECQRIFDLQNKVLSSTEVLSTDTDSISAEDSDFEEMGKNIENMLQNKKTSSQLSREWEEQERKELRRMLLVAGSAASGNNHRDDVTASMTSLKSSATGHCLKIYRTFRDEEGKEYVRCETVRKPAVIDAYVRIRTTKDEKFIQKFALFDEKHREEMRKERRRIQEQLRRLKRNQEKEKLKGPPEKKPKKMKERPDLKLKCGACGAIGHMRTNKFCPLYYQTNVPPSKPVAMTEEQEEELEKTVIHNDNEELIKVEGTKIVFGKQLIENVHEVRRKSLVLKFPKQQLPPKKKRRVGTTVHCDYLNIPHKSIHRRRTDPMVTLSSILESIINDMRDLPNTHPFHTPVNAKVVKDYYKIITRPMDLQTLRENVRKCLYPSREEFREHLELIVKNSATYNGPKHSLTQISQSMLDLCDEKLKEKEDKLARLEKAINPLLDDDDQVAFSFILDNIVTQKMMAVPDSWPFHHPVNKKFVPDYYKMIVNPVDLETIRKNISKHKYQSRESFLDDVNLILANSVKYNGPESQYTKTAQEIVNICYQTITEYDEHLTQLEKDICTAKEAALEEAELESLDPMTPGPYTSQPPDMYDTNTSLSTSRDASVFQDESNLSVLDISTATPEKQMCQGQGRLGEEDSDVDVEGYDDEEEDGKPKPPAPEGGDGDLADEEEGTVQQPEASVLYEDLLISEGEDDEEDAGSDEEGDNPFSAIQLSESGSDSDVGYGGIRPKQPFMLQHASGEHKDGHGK

Homo sapiens = species on record: Homo sapiens; experiment: Selectivity ratio of IC50 for His-tagged BRPF1 (626 to 740 residues) (unknown origin) to IC50 for human BRPF2 (563 to 688 residues) expressed in Escherichia coli BL21 (DE3) by TR-FRET assay
[13] = molecular target: Bromodomain-containing protein 2 (Homo sapiens) (UniProt P25440); experiment: Inhibition of BRD2 BD1 (unknown origin) assessed as change in melting temperature at 10 uM by SYPRO Orange-dye based fluorescence thermal shift assay
[14] = molecular target: PH-interacting protein (Homo sapiens) (UniProt Q8WWQ0); experiment: Inhibition of PHIP BD2 (unknown origin) assessed as change in melting temperature at 10 uM by SYPRO Orange-dye based fluorescence thermal shift assay
[15] = molecular target: Bromodomain adjacent to zinc finger domain protein 1A (Homo sapiens) (UniProt Q9NRL2); experiment: Inhibition of BAZ1A (unknown origin) assessed as change in melting temperature at 10 uM by SYPRO Orange-dye based fluorescence thermal shift assay
[16] = molecular target: T6, Transcription initiation factor TFIID subunit 1-like; experiment: Inhibition of TAF1L BD2 (unknown origin) assessed as change in melting temperature at 10 uM by SYPRO Orange-dye based fluorescence thermal shift assay
Peregrin (Homo sapiens) [17] = molecular target: T5, Peregrin (Homo sapiens); experiment: Inhibition of BRPF1A (unknown origin) assessed as change in melting temperature at 10 uM by SYPRO Orange-dye based fluorescence thermal shift assay
Peregrin (Homo sapiens) [18] = molecular target: T5, Peregrin (Homo sapiens); experiment: Inhibition of BRPF1B (unknown origin) assessed as change in melting temperature at 10 uM by SYPRO Orange-dye based fluorescence thermal shift assay
[19] = molecular target: Tyrosine-protein kinase BAZ1B (Homo sapiens) (UniProt Q9UIG0); experiment: Inhibition of BAZ1B (unknown origin) assessed as change in melting temperature at 10 uM by SYPRO Orange-dye based fluorescence thermal shift assay
[20] = molecular target: Histone-lysine N-methyltransferase ASH1L (Homo sapiens) (UniProt Q9NR48); experiment: Inhibition of ASH1L (unknown origin) assessed as change in melting temperature at 10 uM by SYPRO Orange-dye based fluorescence thermal shift assay
[21] = molecular target: Nucleosome-remodeling factor subunit BPTF (Homo sapiens) (UniProt Q12830); experiment: Inhibition of FALZ (unknown origin) assessed as change in melting temperature at 10 uM by SYPRO Orange-dye based fluorescence thermal shift assay
[22] = molecular target: Bromodomain adjacent to zinc finger domain protein 2A (Homo sapiens) (UniProt Q9UIF9); experiment: Inhibition of BAZ2A (unknown origin) assessed as change in melting temperature at 10 uM by SYPRO Orange-dye based fluorescence thermal shift assay
[23] = molecular target: CREB-binding protein (Homo sapiens) (UniProt Q92793); experiment: Inhibition of His-tagged CREBBP (unknown origin) at 100 nM using biotin-acetylated histone H4 peptide as substrate after 30 mins by AlphaScreen assay relative to control
[24] = molecular target: Bromodomain-containing protein 3 (Homo sapiens) (UniProt Q15059); experiment: Inhibition of BRD3 BD2 (unknown origin) assessed as change in melting temperature at 10 uM by SYPRO Orange-dye based fluorescence thermal shift assay
[25] = molecular target: T4, Bromodomain-containing protein 4; experiment: Inhibition of BRD4 BD2 (unknown origin) assessed as change in melting temperature at 10 uM by SYPRO Orange-dye based fluorescence thermal shift assay
[26] = molecular target: Transcription intermediary factor 1-alpha (Homo sapiens) (UniProt O15164); experiment: Inhibition of TIF1-phd-bromo (unknown origin) assessed as change in melting temperature at 10 uM by SYPRO Orange-dye based fluorescence thermal shift assay
[27] = molecular target: CREB-binding protein (Homo sapiens) (UniProt Q92793); experiment: Inhibition of human CREBBP (R1081 to G1197 residues) expressed in bacterial expression system at 100 nM by BROMOScan assay
[28] = molecular target: ATPase family AAA domain-containing protein 2B (Homo sapiens) (UniProt Q9ULI0); experiment: Inhibition of ATAD2B (unknown origin) assessed as change in melting temperature at 10 uM by SYPRO Orange-dye based fluorescence thermal shift assay
Chain of ATPase family AAA domain-containing protein 2B (Homo sapiens) (Q9ULI0 whole entry, the tested form may be a part): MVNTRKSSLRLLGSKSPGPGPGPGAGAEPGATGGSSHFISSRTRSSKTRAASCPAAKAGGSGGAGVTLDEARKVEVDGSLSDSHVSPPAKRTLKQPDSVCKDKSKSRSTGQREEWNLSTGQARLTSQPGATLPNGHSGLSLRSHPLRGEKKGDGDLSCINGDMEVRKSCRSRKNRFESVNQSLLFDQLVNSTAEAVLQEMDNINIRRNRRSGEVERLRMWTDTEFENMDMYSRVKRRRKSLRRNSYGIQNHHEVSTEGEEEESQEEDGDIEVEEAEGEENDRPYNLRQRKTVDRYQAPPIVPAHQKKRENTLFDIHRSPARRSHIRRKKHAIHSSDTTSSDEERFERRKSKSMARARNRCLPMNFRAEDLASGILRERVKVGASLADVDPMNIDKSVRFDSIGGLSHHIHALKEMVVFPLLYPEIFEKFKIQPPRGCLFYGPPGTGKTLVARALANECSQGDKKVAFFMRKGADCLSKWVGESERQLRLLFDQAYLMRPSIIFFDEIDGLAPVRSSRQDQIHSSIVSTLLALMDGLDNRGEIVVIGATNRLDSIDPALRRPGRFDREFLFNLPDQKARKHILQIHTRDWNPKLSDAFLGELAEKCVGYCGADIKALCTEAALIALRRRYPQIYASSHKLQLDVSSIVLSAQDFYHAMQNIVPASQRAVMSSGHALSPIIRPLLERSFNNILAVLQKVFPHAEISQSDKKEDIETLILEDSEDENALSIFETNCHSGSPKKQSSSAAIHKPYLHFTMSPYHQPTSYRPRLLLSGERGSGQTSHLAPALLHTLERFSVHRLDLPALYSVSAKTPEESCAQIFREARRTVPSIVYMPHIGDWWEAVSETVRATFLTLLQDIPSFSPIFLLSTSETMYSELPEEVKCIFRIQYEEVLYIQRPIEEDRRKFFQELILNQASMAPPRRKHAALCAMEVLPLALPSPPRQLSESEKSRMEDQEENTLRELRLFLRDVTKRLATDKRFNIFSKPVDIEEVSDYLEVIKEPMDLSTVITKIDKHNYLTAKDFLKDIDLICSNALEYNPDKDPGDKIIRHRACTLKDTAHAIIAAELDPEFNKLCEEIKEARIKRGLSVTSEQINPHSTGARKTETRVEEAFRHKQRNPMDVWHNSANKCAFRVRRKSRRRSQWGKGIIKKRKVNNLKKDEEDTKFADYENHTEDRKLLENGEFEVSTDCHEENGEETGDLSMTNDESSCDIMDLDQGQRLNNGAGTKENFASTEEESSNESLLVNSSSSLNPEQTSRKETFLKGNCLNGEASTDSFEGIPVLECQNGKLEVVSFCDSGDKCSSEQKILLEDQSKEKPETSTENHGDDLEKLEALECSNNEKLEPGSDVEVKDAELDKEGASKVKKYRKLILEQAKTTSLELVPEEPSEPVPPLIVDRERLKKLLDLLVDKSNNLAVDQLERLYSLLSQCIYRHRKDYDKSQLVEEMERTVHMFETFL

[29] = molecular target: Bromodomain and WD repeat-containing protein 1 (Homo sapiens) (UniProt Q9NSI6); experiment: Inhibition of WDR9 BD2 (unknown origin) assessed as change in melting temperature at 10 uM by SYPRO Orange-dye based fluorescence thermal shift assay
[30] = molecular target: Bromodomain adjacent to zinc finger domain protein 2B (Homo sapiens) (UniProt Q9UIF8); experiment: Inhibition of BAZ2B (unknown origin) assessed as change in melting temperature at 10 uM by SYPRO Orange-dye based fluorescence thermal shift assay

IC50 [1]: 675 nM
IC50 [2]: 37 nM
IC50 (Peregrin): 547 nM
deltaTm [3]: 6.2 K
solubility [4]: Insoluble
Activity [5]: inactive
IC50 [6]: > 10100 nM
Activity [7]: inactive
Activity [8]: inactive
IC50 [9]: 15000 to 20000 nM
inhibition (Peregrin (Homo sapiens) [10]): inactive
IC50 [11]: 8 nM
Activity [12]: inactive
SMILES: Cc1cc2c(cc1N1C(=O)c3cccc4c(Cl)ccc(c34)C1=O)n(C)c(=O)n2C

IC50 [2]: 121 nM
IC50 (Peregrin): 14200 nM
solubility [4]: 0.1 µg/mL (≈ 0.233 µM)
IC50 [6]: > 13900 nM
IC50 [9]: > 15000 nM
IC50 [11]: 3 nM
Ratio IC50 (Homo sapiens): 118
SMILES: CCCNc1ccc2c3c(cccc13)C(=O)N(c1cc3c(cc1C)n(C)c(=O)n3C)C2=O

deltaTm [13]: 3.2 K
deltaTm [14]: 1.1 K
deltaTm [15]: 0.8 K
deltaTm [16]: 4.8 K
deltaTm (Peregrin (Homo sapiens) [17]): 0.8 K
deltaTm (Peregrin (Homo sapiens) [18]): 2.4 K
deltaTm [19]: 0.6 K
deltaTm [7]: 3.2 K
deltaTm [20]: 1.5 K
deltaTm [21]: 2.8 K
deltaTm [22]: 1.5 K
inhibition [23]: 41%
deltaTm [24]: 1.7 K
deltaTm [25]: 3.4 K
deltaTm [26]: 0.6 K
inhibition [27]: 30%
deltaTm [28]: 1.5 K
deltaTm [29]: 0.7 K
deltaTm [30]: 1.6 K
SMILES: Cc1cc2c(cc1N1C(=O)c3cccc4c(CCCO)ccc(c34)C1=O)n(C)c(=O)n2C
